Common to all, as to type: in vivo, tomato
Experiment [1] concerns tomatoes (var. Marglobe). In words: Freeze event, greenhouse grown tomatoes sprayed with composition (Example 1). Conditions: exposures to −3.3° C. An excerpt: Unadapted plants in trays were sprayed with a composition comprised of a particulate material and a plant growth regulating compound mixed with water. The composition was applied using a backpack sprayer in a factorial trial design. The particulate material used was kaolin, applied at 25 and 50 kg/ha. […] Two plant growth regulating compounds, methyl salicylate and sodium salicylate, were each mixed individually with the kaolin. In addition to combinations of kaolin and each of the plant growth regulating compounds, the experiment included applying kaolin alone and each of the plant growth regulating compounds alone, each mixed with water. The concentrations of each of the plant growth regulating compounds in the composition were 1×10^−4M and 1×10^−5M.

Experiment [2] deals with tomatoes (var. Marglobe). Briefly: Growth chamber induced temperature/light stress in tomatoes (Example 2). Particulars: for Chlorosis (%): after five days, 4 to 42° C. Here is the method:
In this example, a growth chamber was used to induce stress in plants. Tomatoes (var. Marglobe) were greenhouse grown, then adapted in the growth chamber for two days at a constant 20° C. and the highest light intensity produced by the growth chamber. The temperature was then programmed for a multi-step diurnal variation between about 4 and about 42° C. The plants were treated with a composition comprised of a particulate material and a plant growth regulating compound mixed with water. The particulate material used was Kaolin, applied at 25 and 50 kg/ha. […] The plant growth regulating compound was sodium salicylate, which was applied at 1×10^−4M and 1×10^−5M in the composition. In addition to combinations of kaolin and the plant growth regulating compound, the experiment included applying kaolin alone and the plant growth regulating compound alone, each mixed with water.

In the next experiment the test system is Potted tomatoes. In words: Chill stress of potted tomatoes under field conditions (Example 5). Conditions: particulate 0 kg/ha, rating 10 completely healthy, 0 dead. An excerpt:
Potted tomatoes under field conditions were subjected to cold temperatures in Australia in September-October 2007. […] The plants were sprayed with a composition comprised of particulate material and a plant growth regulating compound mixed with water. The particulate material used was kaolin, applied at 25 and 50 kg/ha. […] Two plant growth regulating compounds, sodium salicylate and benzyl acetate, were each mixed individually with the kaolin. The concentration of each plant growth regulating compound in the composition was 1×10^−5M. In addition to combinations of kaolin and each of the plant growth regulating compounds, the experiment included applying kaolin alone and sodium salicylate alone each mixed with water. The vigor and health of the plants were evaluated during the period of the trial.

Experiment [3] has as its system early season tomatoes (var. Mountain Spring). In words: Irrigated field trial, flower abortion (Example 4). Conditions: 1 × 10^−5M. An excerpt:
In addition to combinations of kaolin and the plant growth regulating compound, the experiment included applying kaolin alone and the plant growth regulating compound alone, each mixed with water.

Experiment [4] concerns Field-grown tomatoes (var. Better Boy). Briefly: Field trial without irrigation, weekly treatments (Example 3). An excerpt:
Treatment consisted of a composition comprised of a particulate material and a plant growth regulating compound mixed with water. The particulate material was kaolin, applied at 25 and 50 kg/ha. […] The plant growth regulating compound was sodium salicylate, which was applied at a concentration of 1×10^−5M in the composition. In addition to combinations of kaolin and the plant growth regulating compound, the experiment included applying kaolin alone and the plant growth regulating compound alone, each mixed with water. The trial was conducted in a grower field of sandy soil in Wake County, N.C. under grower conditions. The conditions were considered to be severe, as there was no irrigation and rainfall was insufficient during the trial. Treatments were applied at weekly intervals. The trial was a randomized complete block design with three replications.

For `COC(=O)c1ccccc1O` [Me Salicylate, methyl salicylate], the “Mortality (%)” value in the experiment on tomatoes (var. Marglobe) [1] (1 × 10^−4M) was 0%; with tomatoes (var. Marglobe) [1] (1 × 10^−5M) it was 20%.

For `O=C([O-])c1ccccc1O.[Na+]` [Na Salicylate, sodium salicylate], the “Growth (cm)” value with tomatoes (var. Marglobe) [2] (1 × 10^−4M) and in the experiment on tomatoes (var. Marglobe) [2] (1 × 10^−5M) was 1.9 cm each time. The “Chlorosis (%)” value turned out to be 7.5% in the experiment with tomatoes (var. Marglobe) [2] (1 × 10^−4M) and 8.8% in the experiment with tomatoes (var. Marglobe) [2] (1 × 10^−5M). The “Plant Vigor/Health” value in the experiment on Potted tomatoes (7/10/2007, growth compound 0.8 g/ha) is reported as 7.7 a; with Potted tomatoes (7/10/2007, growth compound 1.6 g/ha), 7.3 a; in the experiment with Potted tomatoes (12/9/2007, growth compound 0.8 g/ha), 10 a; in the experiment with Potted tomatoes (12/9/2007, growth compound 1.6 g/ha) it was 10 a; in the experiment with Potted tomatoes (26/09/2007, growth compound 0.8 g/ha), 6.5 ab; in the experiment on Potted tomatoes (26/09/2007, growth compound 1.6 g/ha) it was 6.5 ab. The figures for the “# Aborted Flowers/Plant” value in experiment [3] (Rating 1) and in experiment [3] (Rating 2) were 20.75 and 3.94, respectively. Besides, the results for the “Mortality (%)” value with tomatoes (var. Marglobe) [1] (1 × 10^−4M) and in the experiment on tomatoes (var. Marglobe) [1] (1 × 10^−5M) were 83% and 6.3%, respectively. Also, the “# flower clusters/plant” value in experiment [4] (Rating 1, 1 × 10^−5M) turned out to be 2.61; in experiment [4] (Rating 2, 1 × 10^−5M), 3.78. The “# Fruit > 2 cm” value in experiment [4] (Rating 2, 1 × 10^−5M) is recorded as 1.05. The “# Mature blossoms” value in experiment [4] (Rating 3, 1 × 10^−5M) amounted to 2.89. For the same compound, the “# clusters/plant” value in experiment [4] (Rating 3, 1 × 10^−5M) is 0.75. The “Fruit > 1 cm” value in experiment [4] (Rating 3, 1 × 10^−5M) is recorded as 1.46. Moreover, in experiment [4] (plant growth, flowering, fruit clusters per plant, no irrigation), the “stress protection (in words)” value is “values intermediate between the untreated plants and the plants treated with both”.

For the origin of these results see patent US20090156404A1, “Methods and Compositions for Reducing Stress in Plants” (CROP MICROCLIMATE MANAGEMENT, INC., priority 2007, published 2009).
